Values quoted from earlier work, collected in PMC9374181 (Toxicology and applied pharmacology, 2022).
Like-named read-outs stand apart in the source and are kept apart here.

How the values were obtained:
[1] = rat models, IM
[2] = general statement on approved oximes

Compound | Cmax ([1]; 50 mg/kg, no reference given) [ng/mL] | plasma T1/2 [2] | plasma T1/2 (ref Alioth-Streichenberg et al., 1991) [min] | Cmax ([1]; 40 mg/kg, ref Green et al., 1986) [ng/mL] | published half-life (published value, no reference given) | Cmax ([1]; 50 mg/kg, ref Cassel and Fosbraey, 1996) [ng/mL] | plasma T1/2 (ref Cassel and Fosbraey, 1996) [min]
O/N=C/c1cc[n+](COC[n+]2ccc(/C=N/O)cc2)cc1 [obidoxime] | 26000 | less than 90 min | 35 |  |  |  | 
C[n+]1ccccc1/C=N/O [Oxime 2-PAM, pralidoxime] |  | less than 90 min |  | 14500 | less than 2 hours |  | 
NC(=O)c1cc[n+](COC[n+]2ccccc2/C=N/O)cc1 [asoxime] |  | less than 90 min |  |  |  | 900 | 48
